# Laboratory results published in US4258199A, “Method for preparing cyclic ethers and thioethers including oxygen isomers and sulfur analogs of prostacyclin” (Research Corporation, priority 1978, dated 1981).
# Where a name gives a salt, the structure may show the parent alone.
# Assays:
# [1] = tested on: human and rabbit citrated platelet-rich plasma; experiment: platelet aggregation, citrated platelet-rich plasma in a chronolog aggregometer (agonistic and antagonistic activity vs ADP); assay type: cell-based; conditions: 20 mM and 2 μM (so in the source), inhibition of aggregation by 2 μM ADP, or antagonism of 5 mM prostacyclin
# Procedure: Effects of prostacyclin analogs on platelet aggregation was evaluated using human and rabbit citrated platelet-rich plasma in a chronolog aggregometer at […]. Each of the analogs was tested at two concentrations (20 mM and 2 μM) for agonistic activity (inhibition of aggregation induced by 2 μM ADP) and antagonistic activity (prevention of the inhibition of ADP-induced aggregation by 5 mM prostacyclin).
# [2] = half-life in saline / stability in solution (Table 1); assay type: physicochemical; conditions: 250° C. (so in the source); for half-life: read-out: t 1/2 saline
# Source text: The removal of the protecting groups R^1, R^2 and R^3 from the resulting products of the oxidation, i.e, the allylic oxygen cyclic ethers or sulfones or the vinylic sulfoxides, or sulfones, can be carried out with acid or base or sequentially with both, if necessary, and yields prostacyclin isomers and analogs. A particularly useful prostacyclin sulfur analog, 6,9α-thiaprostacyclin ester can be obtained by reducing a 6,9α-sulfoxaprostacyclin ester--obtained as described supra--with a reducing agent such as trimethylsilyliodide.
# [3] = tested on: cat coronary artery; experiment: isolated perfused cat coronary artery, perfusion pressure; conditions: isolated perfused cat right coronary artery, 37° C., change in perfusion pressure
# Procedure: Effects of prostacyclin analogs on isolated perfused cat coronary arteries were measured as follows.
# Cats of either sex (2.5-3.5 kg) were anesthetized with sodium pentobarbital (30 mg/kg) given intravenously. Hearts were rapidly excised and placed in oxygenated (95% O2 +5% CO2) ice-cold Krebs-Henseleit (K-H) solution of the following millimolar composition: NaCl, 118; KCl, 4.75; CaCl2.H2 O, 2.54; KH2 PO4, 1.19; MgSO4.7H2 O, 1.19; NaHCO3, 12.5; glucose, 10.00. A 20-gauge stainless steel cannula was inserted into the right coronary artery via the coronary ostium. Distal to the cannula, approximately 1 cm of coronary artery was dissected free of surrounding tissue. The section of right coronary artery with the cannula in place was excised from the heart and immediately transferred to a constant flow perfusion apparatus.
# The perfusion apparatus consists of a reservoir containing 20 ml of warm (37° C.) oxygenated (95% O2 +5% CO2) K-H solution which bathes the coronary artery and serves as recirculating perfusate. An increase in perfusion pressure indicates vasoconstriction, whereas a decrease in perfusion pressure signifies vasodilation. Following an initial 1 hr. equilibrium period, vascular responsiveness was established by adding 25 mM KCl. After washing with fresh K-H solution for 20-30 mins., the preparation achieved a relatively constant low basal tone. Basal perfusion pressure averaged 50±2.5 mm Hg. Fresh K-H dilutions of stock prostacyclin analog concentrations were added to the perfusate reservoir in 0.1-0.2 ml volumes. Changes in perfusion pressure in response to prostacyclin analog addition generally plateaus within 5 mins. of administration.
# [4] = stability of the sodium salt in solution (preparative examples); assay type: physicochemical; conditions: sodium salt after hydrolysis with NaOH in 90% ethanol
# Procedure: Acidification of this compound in aqueous solutions leads to the corresponding acid which can be extracted with ether and purified chromatographically.
# The critical intermediate for this synthesis is 11,15-diol, 5-phenylseleno,6,9α-thiaprostacyclin methyl ester IV (R^1 =--CH3, R^2 =R^3 =H, Z=--S--). The preparation of this intermediate is described in Example 10a. When this intermediate was oxidized with 3.3 equivalents of m-chloroperbenzoic acid in methylene chloride -78°→20° C. for 24 hours, the 6,9α-sulfoprostacyclin methyl ester IX was produced in 85% yield (IX, R^1 =--CH3, R^2 =R^3 =H, n=2). It was isolated by prep layer chromatography and hydrolyzed with NaOH in 90% ethanol at 25° C. to afford the corresponding sodium salt IX.
# [5] = solubility (analytical data of methyl ester); assay type: physicochemical
# [6] = background statement; cited from earlier work
Molecule,Biological Activity: Platelet Aggregation [1],t 1/2 saline [2],Biological Activity: Cat Coronary Artery [3],half-life [2],also measured
"6,9-sulfo-4(E)isoprostacyclin, 6αisomer",Inhibitor,> 24 h,Constrictor(M),–,–
"6,9-sulfo-4(E)isoprostacyclin, 6βisomer",Antagonist,> 24 h,Constrictor,–,–
"CCCCCC(O)/C=C/C1C(O)CC2OC(/C=C/CCC(=O)O)CC21 (stereo not drawn) [4(E)-9-deoxy-6,9α-epoxy-Δ^4 -isoprostacyclin(6α)]",Antagonist,> 3 h,Constrictor,–,–
"CCCCCC(O)/C=C/C1C(O)CC2OC(/C=C/CCC(=O)O)CC21 (stereo not drawn) [4(E)-9-deoxy-6,9α-epoxy-Δ^4 -isoprostacyclin(6β)]",Inhibitor(P),> 3 h,Constrictor(P),–,–
"CCCCC[C@H](O)/C=C/[C@@H]1[C@H]2C/C(=C/CCCC(=O)O)S(=O)(=O)[C@H]2C[C@H]1O [5(Z)-6,9α-sulfoprostacyclin sodium salt]",–,–,–,–,stability of sodium salt in solution [4]: quantitatively stable in aqueous solution
"CCCCC[C@H](O)/C=C/[C@@H]1[C@H]2C/C(=C/CCCC(=O)O)[S+]([O-])[C@H]2C[C@H]1O (stereo partly drawn) [5(Z)-6,9α-sulfoxaprostacyclin sodium salt]",–,–,–,–,stability of sodium salt in solution [4]: stable solution
"CCCCC[C@H](O)/C=C/[C@@H]1[C@H]2CC(/C=C/CCC(=O)OC)S(=O)(=O)[C@H]2C[C@H]1O (stereo partly shown) [6,9-sulfo-4(E) is oprostacyclin methyl ester]",–,–,–,–,solubility [5]: CH2 Cl2 and common organic solvents
"CCCCC[C@H](O)/C=C/[C@@H]1[C@H]2C/C(=C/CCCC(=O)O)S(=O)(=O)[C@H]2C[C@H]1O [6,9-sulfo-5(Z)prostacyclin]",Antagonist(M),–,Constrictor(M),> 24 h,–
"CCCCC[C@H](O)/C=C/[C@@H]1[C@H]2C/C(=C\CCCC(=O)O)[S+]([O-])[C@H]2C[C@H]1O (stereo partly shown) [6,9-sulfoxa-5(E)prostacyclin]",Little activity,–,Little activity,> 24 h,–
"CCCCC[C@H](O)/C=C/[C@@H]1[C@H]2C/C(=C/CCCC(=O)O)[S+]([O-])[C@H]2C[C@H]1O (stereo partly shown) [6,9-sulfoxa-5(Z)prostacyclin]",Little activity,–,Little activity,> 24 h,–
"CCCCC[C@H](O)/C=C/[C@@H]1[C@H]2C/C(=C/CCCC(=O)O)S[C@H]2C[C@H]1O [6,9α-Thia-5(Z)prostacyclin]","Very little activity, if any",–,"Very little activity, if any",> 3 h,–
"CCCCC[C@H](O)/C=C/[C@@H]1[C@H]2C/C(=C/CCCC(=O)OC)S(=O)(=O)[C@H]2C[C@H]1O [6,9α-sulfoprostacyclin methyl ester]",–,–,–,–,solubility [5]: common organic solvents
"CCCCC[C@H](O)/C=C/[C@@H]1[C@H]2C/C(=C/CCCC(=O)O)O[C@H]2C[C@H]1O [Natural Prostacyclin, 6,9α-oxido-11α,15α-dihydroxyprosta-(Z)5, (E)13-dienoic acid, reference compound]",Inhibitor(P),–,Dilator(P),–,biological half-life [6]: 2 minutes
